Assay results published in US8129396B2, “2-[1H-benzimidazol-2(3H)-ylidene]-2-(pyrimidin-2-yl)acetamides and 2-[benzothiazol-2(3H)-ylidene]-2-(pyrimidin-2-yl)acetamides as kinase inhibitors” (Telik, Inc., priority 2008, dated 2012).
Like-named read-outs stand apart in the source and are kept apart here.

How the values were obtained:
Aurora A kinase = target: T1, Aurora A kinase (Homo sapiens, UniProt O14965); experiment: Aurora A kinase assay (IMAP fluorescence polarization); format: biochemical; conditions: 10 μM ATP; rounded to 1 significant figure; read-out: Aur-A IC50
T1 construct: purchased Upstate Biotech
T1 sequence (O14965 1-403): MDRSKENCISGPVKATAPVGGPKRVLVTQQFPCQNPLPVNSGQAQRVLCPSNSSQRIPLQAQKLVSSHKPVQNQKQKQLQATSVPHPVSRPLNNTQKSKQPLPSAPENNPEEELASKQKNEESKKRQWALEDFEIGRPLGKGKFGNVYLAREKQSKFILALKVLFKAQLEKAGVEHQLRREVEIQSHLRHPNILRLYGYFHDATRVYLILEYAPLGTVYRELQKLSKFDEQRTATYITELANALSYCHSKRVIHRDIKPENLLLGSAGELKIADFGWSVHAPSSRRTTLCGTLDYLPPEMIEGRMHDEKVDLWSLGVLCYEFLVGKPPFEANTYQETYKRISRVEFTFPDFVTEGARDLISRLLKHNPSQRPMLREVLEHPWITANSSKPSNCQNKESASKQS
How it was run: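 Compounds (eight 3-fold dilutions, 2.5% DMSO final) were preincubated 5 min at room temperature with Aurora A kinase in buffer with 1 mM DTT. Reaction with 100 nM fluorescein-PKAtide and 10 μM ATP ran 45 min at room temperature, then was stopped with IMAP binding reagent; fluorescence polarization was read after 30 min.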

Aurora B kinase = target: T2, Aurora B kinase (Homo sapiens, UniProt Q96GD4); experiment: Aurora B kinase assay (IMAP fluorescence polarization); format: biochemical; conditions: 10 μM ATP; rounded to 1 significant figure; read-out: Aur-B IC50
T2 construct: purchased BPS Bioscience
T2 sequence (Q96GD4 whole entry): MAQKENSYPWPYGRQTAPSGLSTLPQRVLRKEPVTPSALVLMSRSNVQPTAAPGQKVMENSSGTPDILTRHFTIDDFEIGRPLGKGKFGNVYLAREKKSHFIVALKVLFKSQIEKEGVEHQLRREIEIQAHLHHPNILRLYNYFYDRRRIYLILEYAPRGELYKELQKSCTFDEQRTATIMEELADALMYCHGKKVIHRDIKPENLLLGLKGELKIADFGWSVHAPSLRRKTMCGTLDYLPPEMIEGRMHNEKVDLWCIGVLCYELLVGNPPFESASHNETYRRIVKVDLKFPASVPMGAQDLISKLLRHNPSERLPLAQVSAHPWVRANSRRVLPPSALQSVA
How it was run: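 Reaction started with 100 nM fluorescein-labelled PKAtide and 10 μM ATP, run 45 min at room temperature, then stopped with IMAP binding reagent (1:400). After 30 min shaking at room temperature, fluorescence polarization read; run in duplicate with solvent control.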

VEGFR2 kinase = target: T3, VEGFR2 kinase (Homo sapiens, UniProt P35968); experiment: VEGFR2 kinase assay; format: biochemical; conditions: 6 μM ATP, 1 mM MnCl2; rounded to 1 significant figure
T3 construct: purchased Cell Signaling Technology
T3 sequence (P35968 20-1356): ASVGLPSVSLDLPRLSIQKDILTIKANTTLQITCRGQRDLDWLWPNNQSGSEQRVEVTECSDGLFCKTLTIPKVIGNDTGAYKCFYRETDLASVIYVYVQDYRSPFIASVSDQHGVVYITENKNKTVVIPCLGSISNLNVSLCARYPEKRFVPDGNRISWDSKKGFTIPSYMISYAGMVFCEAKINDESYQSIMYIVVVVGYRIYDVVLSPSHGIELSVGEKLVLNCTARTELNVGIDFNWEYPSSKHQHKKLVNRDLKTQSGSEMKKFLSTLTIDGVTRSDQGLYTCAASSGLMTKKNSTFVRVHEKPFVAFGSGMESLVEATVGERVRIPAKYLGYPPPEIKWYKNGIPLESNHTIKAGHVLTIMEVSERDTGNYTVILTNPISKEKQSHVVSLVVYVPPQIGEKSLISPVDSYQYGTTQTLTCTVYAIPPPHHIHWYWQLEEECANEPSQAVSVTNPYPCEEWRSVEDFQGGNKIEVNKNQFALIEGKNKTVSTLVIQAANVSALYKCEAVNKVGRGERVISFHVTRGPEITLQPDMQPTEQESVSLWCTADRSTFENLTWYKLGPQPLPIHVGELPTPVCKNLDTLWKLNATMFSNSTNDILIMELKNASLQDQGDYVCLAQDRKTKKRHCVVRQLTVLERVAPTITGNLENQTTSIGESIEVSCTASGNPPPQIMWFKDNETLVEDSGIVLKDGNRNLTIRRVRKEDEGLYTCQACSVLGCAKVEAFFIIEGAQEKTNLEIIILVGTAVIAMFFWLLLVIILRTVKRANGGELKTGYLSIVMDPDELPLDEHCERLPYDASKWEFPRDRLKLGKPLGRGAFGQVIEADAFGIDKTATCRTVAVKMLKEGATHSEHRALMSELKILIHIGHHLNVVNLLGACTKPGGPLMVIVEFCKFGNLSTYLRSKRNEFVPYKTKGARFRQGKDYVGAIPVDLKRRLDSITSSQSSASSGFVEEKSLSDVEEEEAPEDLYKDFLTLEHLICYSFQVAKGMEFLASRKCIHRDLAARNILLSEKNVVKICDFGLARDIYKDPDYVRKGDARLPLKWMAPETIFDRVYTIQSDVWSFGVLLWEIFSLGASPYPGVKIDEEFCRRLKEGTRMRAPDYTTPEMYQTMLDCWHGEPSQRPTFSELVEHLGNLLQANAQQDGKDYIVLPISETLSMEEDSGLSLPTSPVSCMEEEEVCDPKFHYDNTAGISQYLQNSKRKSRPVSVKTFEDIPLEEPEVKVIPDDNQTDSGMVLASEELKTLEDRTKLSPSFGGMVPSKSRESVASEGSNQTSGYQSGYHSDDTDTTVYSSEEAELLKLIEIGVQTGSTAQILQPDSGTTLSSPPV
How it was run: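 VEGFR2 phosphorylates CSKtide with 6 μM ATP and 1 mM MnCl2 for 1 hr, otherwise following the Aurora A kinase protocol. Detection by IMAP fluorescence polarization, binding reagent diluted 1:1200 in 1:1 binding buffer A/B. Run in duplicate with solvent control.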

p-H3 in HCT116 cells = experiment: Histone phosphorylation (p-H3) assay; format: cell-based; conditions: Homo sapiens, read-out: p-H3 IC50
How it was run: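 HCT116 cells (2.5×10^4/well, attached overnight) treated 4 h with 8-point 3-fold compound dilutions at 0.5% DMSO. Lysates dot-blotted onto nitrocellulose and probed for p-H3 with β-actin on the same membrane, fluorescent secondary antibodies, Odyssey scan; duplicate wells.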

[1] = tested on: HCT116 (human colon carcinoma) cells; experiment: HCT116 cytotoxicity assay (CellTiter-Glo); format: cell-based; conditions: HCT-116, 72 h, read-out: HCT116 IC50
[2] = tested on: HL60 (human promyelocytic leukemia) cells; experiment: HL60 cytotoxicity assay (CellTiter-Glo); format: cell-based; conditions: HL-60, 72 h, read-out: HL60 IC50
Text: The cell lines HL60 (human promyelocytic leukemia) and HCT116 (human colon carcinoma) were obtained from the American Type Culture Collection, Manassas, Va., U.S.A., and HUVEC-2 (human umbilical vein endothelial cells) from BD Biosciences, Bedford, Mass., U.S.A. Aurora A kinase was obtained from Upstate Biotech, Billerica, Mass., U.S.A.; Aurora B kinase from BPS Bioscience, San Diego, Calif., U.S.A.; and VEGFR2 kinase from Cell Signaling Technology, Danvers, Mass., U.S.A. The IMAP FP Screening Express kit was obtained from Molecular Devices, Sunnyvale, Calif., U.S.A.; the CellTiter-Glo assay kit from Promega Corporation, Madison, Wis., U.S.A.; and the Cellular DNA Cytometric Analysis Reagent Kit and BrdU labeling and detection kit from Roche Diagnostics Corporation, Indianapolis, Ind., U.S.A. All products were used in accordance with manufacturer's directions. Kinase inhibition assays and the histone phosphorylation (p-H3) assay were conducted in duplicate, and the cytotoxicity and HUVEC proliferation assays were conducted in triplicate, in each case with solvent control.
Log-phase cells were trypsinized, collected by centrifugation, and resuspended in a small volume of fresh medium, and the density of viable cells was determined following Trypan Blue staining. Cells were diluted in fresh media (1×10^4 cells/mL for HL60 and 4×10^4 cells/mL for HCT116 cells), the test compounds (concentrations between 0.1 μM and 200 μM, dissolved in DMSO, 50 μL) added immediately after dilution to achieve a final DMSO concentration of 0.5%, then the suspensions added at 150 μL/well to 96-well plates, and incubated overnight to allow attachment in the case of adherent cells. The cells were cultured for three days (about three doubling times). The cells were then collected by centrifugation, and 100 μL of the culture supernatant was replaced by the CellTiter-Glo reagent. After incubation for 15 minutes at room temperature, the plate was read with a luminometer.

[3] = tested on: HUVEC-2 (human umbilical vein endothelial cells); experiment: HUVEC VEGF-dependent proliferation assay (BrdU); format: cell-based; conditions: read-out: HUVEC IC50
How it was run: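 HUVEC-2 cells on gelatin got serially diluted compound (0.5% DMSO final), and VEGF (25 ng/mL) was added 2 hr later. BrdU (10 μM) went in after one day, with labelling for another day. VEGF-dependent proliferation was read by BrdU detection, in triplicate.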

[4] = tested on: HL60 (human promyelocytic leukemia) xenograft; experiment: HL60 xenograft assay, oral administration; format: in vivo, athymic nu/nu mice; conditions: 150 mg/Kg by gavage once/day on days 1-5 and 8-10; measured 1-2 days after last treatment
Protocol: Male athymic nu/nu mice, 6-8 weeks old (about 20 g), were implanted subcutaneously in the right fore flank with about 1×10^7 cells of the HL60 (human promyelocytic leukemia) line that had been grown in antibiotic-free medium for at least two passages. About 6 days after tumor implantation, when the tumor weight was about 50-250 mg, the mice were assigned to treatment groups. […] […] Tumor growth inhibition was measured 1-2 days after the last day of treatment.

[5] = HCT-116, HCT116 cells, 4 hr incubation
[6] = cytotoxicity, three days culture
[7] = VEGF (25 ng/mL)-dependent proliferation

| IC50 (Aurora A kinase) | IC50 (Aurora B kinase) | IC50 (VEGFR2 kinase) | IC50 (p-H3 in HCT116 cells; [5]) | SMILES | IC50 [1, 6] | IC50 [2, 6] | IC50 [3, 7] | inhibition of tumor growth compared to vehicle [4] | IC50 (p-H3 in HCT116 cells; HCT-116, 4 h) | IC50 [1] | IC50 [2] | IC50 [3] |
| --- | --- | --- | --- | --- | --- | --- | --- | --- | --- | --- | --- | --- |
| 6 nM | 4 nM | 4 nM | 100 nM | CCN(CCCN1CCOCC1)C(=O)c1ccc2c(c1)N/C(=C(/C(N)=O)c1nccc(C(F)(F)F)n1)N2 [Compound 41A] | 700 nM | 100 nM | 200 nM | 81% | – | – | – | – |
| 20 nM | 10 nM | 20 nM | 200 nM | CN(C)CC(=O)Nc1ccc2c(c1)S/C(=C(/C(N)=O)c1nccc(C(F)(F)F)n1)N2 [Compound 74A] | 300 nM | 40 nM | 80 nM | – | – | – | – | – |
| 8 nM | 7 nM | 9 nM | 100 nM | CN1CCC[C@H]1C(=O)Nc1ccc2c(c1)N/C(=C(/C(N)=O)c1nccc(C(F)(F)F)n1)N2 [Compound 77A] | 200 nM | 300 nM | 90 nM | 75% | – | – | – | – |
| 60 nM | 40 nM | 50 nM | 600 nM | CN1CCC[C@H]1C(=O)Nc1ccc2c(c1)S/C(=C(/C(N)=O)c1nccc(C(F)(F)F)n1)N2 [Compound 78A] | 2000 nM | 1000 nM | 400 nM | – | – | – | – | – |
| 20 nM | 20 nM | 10 nM | 400 nM | NC(=O)/C(=C1\Nc2ccc(NC(=O)[C@H]3CCCN3)cc2N1)c1nccc(C(F)(F)F)n1 [Compound 79A] | 100 nM | 300 nM | 40 nM | – | – | – | – | – |
| 6 nM | 7 nM | 9 nM | 90 nM | CC(C)(N)C(=O)Nc1ccc2c(c1)N/C(=C(/C(N)=O)c1nccc(C(F)(F)F)n1)N2 [Compound 81A] | 300 nM | 200 nM | 80 nM | – | – | – | – | – |
| 7 nM | 9 nM | 20 nM | 100 nM | NC(=O)/C(=C1\Nc2ccc(NC(=O)CCN3CCOCC3)cc2N1)c1nccc(C(F)(F)F)n1 [Compound 84A] | 200 nM | 100 nM | 60 nM | – | – | – | – | – |
| 5 nM | 4 nM | 20 nM | 50 nM | NC(=O)/C(=C1\Nc2ccc(NC(=O)CCCN3CCOCC3)cc2N1)c1nccc(C(F)(F)F)n1 [Compound 85A] | 300 nM | 60 nM | 20 nM | 45% | – | – | – | – |
| 4 nM | 8 nM | 30 nM | 200 nM | NC(=O)/C(=C1\Nc2ccc(NC(=O)Cn3ccnc3)cc2N1)c1nccc(C(F)(F)F)n1 [Compound 86A] | 400 nM | 800 nM | 30 nM | – | – | – | – | – |
| 8 nM | 9 nM | 10 nM | 200 nM | NC(=O)/C(=C1\Nc2ccc(NC(=O)CCn3ccnc3)cc2N1)c1nccc(C(F)(F)F)n1 [Compound 87A] | 200 nM | 100 nM | 90 nM | – | – | – | – | – |
| 4 nM | 8 nM | 20 nM | 60 nM | NC(=O)/C(=C1\Nc2cc(NC(=O)Cn3ccnc3)ccc2S1)c1nccc(C(F)(F)F)n1 [Compound 88A] | 300 nM | 100 nM | 300 nM | – | – | – | – | – |
| 5 nM | 5 nM | 6 nM | 100 nM | NC(=O)/C(=C1\Nc2ccc(Cn3ccnc3)cc2S1)c1nccc(C(F)(F)F)n1 [Compound 89A] | 500 nM | 700 nM | 80 nM | – | – | – | – | – |
| 4 nM | 9 nM | 4 nM | 70 nM | NC(=O)/C(=C1\Nc2ccc(Cn3ccnc3)cc2N1)c1nccc(C(F)(F)F)n1 [Compound 90A] | 200 nM | 100 nM | 90 nM | – | – | – | – | – |
| 7 nM | 7 nM | 10 nM | 80 nM | NC(=O)/C(=C1\Nc2ccc(CN3CCNCC3)cc2S1)c1nccc(C(F)(F)F)n1 [Compound 94A] | 200 nM | 100 nM | 50 nM | – | – | – | – | – |
| 5 nM | 9 nM | 10 nM | 300 nM | NC(=O)/C(=C1\Nc2ccc(CCN3CCS(=O)(=O)CC3)cc2S1)c1nccc(C(F)(F)F)n1 [Compound 100A] | 400 nM | 90 nM | 20 nM | – | – | – | – | – |
| 20 nM | 10 nM | 20 nM | 2000 nM | NC(=O)/C(=C1\Nc2ccc(CCN3CCSCC3)cc2S1)c1nccc(C(F)(F)F)n1 [Compound 103A] | 2000 nM | 100 nM | 100 nM | – | – | – | – | – |
| 40 nM | 10 nM | 100 nM | 4000 nM | NC(=O)/C(=C1\Nc2ccc(Oc3cccnc3)cc2S1)c1nccc(C(F)(F)F)n1 [Compound 118A] | 2000 nM | 300 nM | 200 nM | – | – | – | – | – |
| 20 nM | 6 nM | 20 nM | 200 nM | NC(=O)/C(=C1\Nc2ccc(S(=O)(=O)NCCCN3CCOCC3)cc2S1)c1nccc(C(F)(F)F)n1 [Compound 127A] | 600 nM | 500 nM | 40 nM | – | – | – | – | – |
| 6 nM | 9 nM | 20 nM | 400 nM | CN1CCC(C(=O)Nc2ccc3c(c2)N/C(=C(/C(N)=O)c2nccc(C(F)(F)F)n2)N3)CC1 [Compound 140A] | 400 nM | 300 nM | 20 nM | – | – | – | – | – |

| SMILES | IC50 (Aurora A kinase) | IC50 (Aurora B kinase) | IC50 (VEGFR2 kinase) | IC50 (p-H3 in HCT116 cells; [5]) | IC50 [1, 6] | IC50 [2, 6] | IC50 [3, 7] | inhibition of tumor growth compared to vehicle [4] | IC50 (p-H3 in HCT116 cells; HCT-116, 4 h) | IC50 [1] | IC50 [2] | IC50 [3] |
| --- | --- | --- | --- | --- | --- | --- | --- | --- | --- | --- | --- | --- |
| NC(=O)/C(=C1\Nc2ccc(CC(=O)NCCCN3CCOCC3)cc2S1)c1nccc(C(F)(F)F)n1 [Compound 110A] | 50 nM | 20 nM | 20 nM | – | – | – | – | – | 200 nM | 200 nM | 800 nM | 80 nM |
